Measurements reported in paper PMC7774954, “Interactomic affinity profiling by holdup assay: Acetylation and distal residues impact the PDZome-binding specificity of PTEN phosphatase” (PLoS ONE, 2020).
*1 amine or outer side, *2 acyl side, *3 side chain or, on linkers, in order; H or OH if unused. Where a SMILES comes first, the peptide text is derived from it. The star is where a group is joined. X1 = O=C(CCCC[C@@H]1SC[C@@H]2NC(=O)N[C@@H]21)NCCCOCCOCCOCCCN*; Suc = O=C(CCC(=O)[*:2])[*:1]

Test system: 266 human PDZ domains (PDZome)
Test: Holdup assay (chromatographic retention, PDZome-binding profile, BI)
Set-up: key to maximal BI / Max BI / BI: binding intensity: 0.00 = no binding, 1.00 = maximal binding; Log(Kd): unit not given here
Experimental: The holdup method is a chromatographic approach in solution developed in our group that allows to measure the binding strength of a peptide, attached to a resin, against a library of domains of a same family. We initially proposed this method to explore the interaction between PBM peptides and the human PDZ domains. Briefly, a soluble cell lysate containing individually overexpressed PDZ domain is incubated until equilibrium with a calibrated amount of streptavidin-resin saturated either with the target biotinylated PBM peptide or with biotin as a reference. The flow-throughs containing the unbound protein fraction are recovered by filtration and loaded on a capillary electrophoresis instrument to quantify the amount of remaining free PDZ. The stronger the steady-state depletion of the PDZ domain in the flow-through as compared to the reference, the stronger the PDZ/PBM binding interaction. The assay is particularly suited to quantitatively evaluate and compare large numbers of interactions. This method delivers, for each PBM/PDZ pair, a "binding intensity" (BI), whose value can in principle range from 0.00 (no binding event detected) to 1.00 (maximal binding event). The approach has been automated and the human PDZ library was recently extended to the complete 266 PDZ domains known in human proteome. […] The high accuracy and efficiency of the holdup assay have been validated previously. Very recently, a manual version of the holdup assay with purified samples and using widespread benchtop equipment has been implemented and has proven to be reliable.
The 266 PDZ domains that constitute the PDZ library (“PDZome V.2”) used in the present work were produced using constructs with optimized boundaries as described previously. All the genes were fused to Maltose-Binding Protein (MBP) or Thioredoxin (THR) tag often used to facilitate the solubilisation of the over-expressed protein, by cloning them into the pETG41A or pETG20A plasmid, respectively. […] The expressed tag-PDZ concentrations were quantified using capillary gel electrophoresis and cell lysates were diluted to reach approximately 5 μM tag-PDZ before freezing in 96-well plates. A detailed protocol of the PDZ library production, expression and benchmarking can be found in [32]. PDZ domains are named according to their originating protein name followed by the PDZ number (e.g. NHERF1-1 as the first PDZ domain of the NHERF1 protein).
The holdup assay was performed on a Tecan freedom Evo200 robot with 384-well plates in singlicate for the three 11-mer PTEN variants and the 13-mer PTEN peptide as described in [31, 32]. Briefly, prior to interaction assay, 2.5 μL of streptavidin resin was saturated in each well with 20 μL of biotinylated PBM peptides (42 μM) and then washed twice with an excess of free biotin, while the reference resin was incubated only with biotin. Right before the holdup experiment, the PDZ library was spiked with an internal standard of lysozyme. Then, the biotin- or PBM-saturated resin was incubated, each in a distinct well of a 384-well plate, with complete cell lysates diluted so that the concentration of the tag-PDZ present in the crude extract is adjusted at 4 μM. After a sufficient time to reach complex equilibrium (15 min.), a fast and mild filtration step is performed and the tag-PDZ concentrations were measured by capillary electrophoresis instrument (LabChip GXII, PerkinElmer, Massachusets, USA). Standard markers were used to convert migration time into molecular weight on the LabChip software and inappropriate molecular weight markers were corrected or excluded.
Holdup data quality check and processing […]

[1] = PDZ domain PARD3-1, first of two lines so named (r186)

For `CC[C@H](C)[C@H](NC(=O)[C@H](CCC(N)=O)NC(=O)[C@@H](NC(=O)[C@H](Cc1c[nH]cn1)NC(=O)[C@H](CCC(N)=O)NC(=O)[C@H](CC(=O)O)NC(=O)[C@H](CCC(=O)O)NC(=O)[C@H](CC(=O)O)NC(=O)CCC(=O)NCCCOCCOCCOCCCNC(=O)CCCC[C@@H]1SC[C@@H]2NC(=O)N[C@@H]21)[C@@H](C)O)C(=O)N[C@H](C(=O)N[C@@H](CCCNC(=N)N)C(=O)N[C@H](C(=O)O)C(C)C)[C@@H](C)O` [PTEN_KR] ({X1-Suc}-DEDQHTQITRV-OH), the “number of additional new PDZ partners not detected for PTEN_11” value (BI>0.20, compared with PTEN_11) was no less than 11, the BI (PDZ domain MPDZ-2) was 0.021 and the BI (PDZ domain MPDZ-3) was 0.034. For the same molecule, the BI (PDZ domain MPDZ-4) was -0.021, the BI (PDZ domain MPDZ-5) was 0.058 and the BI (PDZ domain MPDZ-6) was 0.033. The BI (PDZ domain MPDZ-7) was 0.267, the BI (PDZ domain MPDZ-8) was 0.128 and the BI (PDZ domain MPDZ-13) was 0.454. For the same molecule, the BI (PDZ domain MPP1-1) was -0.046, the BI (PDZ domain MPP2-1) was -0.03 and the BI (PDZ domain MPP3-1) was -0.023. The BI (PDZ domain MPP4-1) was 0.067, the BI (PDZ domain MPP5-1) was -0.045 and the BI (PDZ domain MPP6-1) was -0.058. The BI (PDZ domain MPP7-1) was -0.023, the BI (PDZ domain NHERF1-2) was 0.063 and the BI (PDZ domain NHERF3-2) was 0.002. The BI (PDZ domain NHERF3-3) was 0.185, the BI (PDZ domain NHERF4-1) was 0.041 and the BI (PDZ domain NHERF4-2) was -0.071. It also gave a BI (PDZ domain NHERF4-3) of -0.035, a BI (PDZ domain NHERF4-4) of 0.01 and a BI (PDZ domain NOS1-1) of 0.039. For the same molecule, the BI [1] was 0.3, the “Log(Kd)” value [1] was 4.255 and the BI (PDZ domain PARD3-1, second of two lines so named (r187)) was -0.046. It also gave a BI (PDZ domain PARD3B-1) of -0.02, a BI (PDZ domain PARD3B-2) of -0.019 and a BI (PDZ domain PARD3B-3) of -0.035. For the same molecule, the BI (PDZ domain PARD6G-1) was -0.023, the BI (PDZ domain PDLIM1-1) was -0.2 and the BI (PDZ domain PDLIM2-1) was 0.034. The BI (PDZ domain PDLIM3-1) was -0.065, the BI (PDZ domain PDLIM4-1) was -0.087 and the BI (PDZ domain PDLIM5-1) was 0.086. For the same molecule, the BI (PDZ domain PDLIM7-1) was -0.042, the BI (PDZ domain PDZD2-1) was -0.056 and the BI (PDZ domain PDZD2-3) was -0.096. The BI (PDZ domain PDZD2-4) was -0.092, the BI (PDZ domain PDZD2-5) was -0.089 and the BI (PDZ domain PDZD2-6) was 0.089. It also gave a BI (PDZ domain PDZD4-1) of 0.031, a BI (PDZ domain PDZD7-1) of -0.024 and a BI (PDZ domain PDZD7-2) of -0.039. For the same molecule, the BI (PDZ domain PDZD7-3) was 0.756, the BI (PDZ domain PDZD8-1) was 0.006 and the BI (PDZ domain PDZD11-1) was -0.048. The BI (PDZ domain PDZRN4-1) was 0.048, the BI (PDZ domain PDZRN4-2) was -0.071 and the BI (PDZ domain PPP1R9A-1) was 0.012. It also gave a BI (PDZ domain PPP1R9B-1) of 0.038, a BI (PDZ domain PREX2-2) of -0.004 and a BI (PDZ domain PRX-1) of 0.025. For the same molecule, the BI (PDZ domain PSMD9-1) was -0.039, the BI (PDZ domain PTPN3-1) was 0.12 and the BI (PDZ domain PTPN4-1) was -0.038. For the same molecule, the BI (PDZ domain PTPN13-1) was -0.017, the BI (PDZ domain PTPN13-5) was 0.096 and the BI (PDZ domain RAPGEF2-1) was -0.11. The BI (PDZ domain RHPN2-1) was -0.087, the BI (PDZ domain RIMS1-1) was 0.013 and the BI (PDZ domain SCRIB-1) was 0.042. For the same molecule, the BI (PDZ domain SCRIB-2) was 0.147, the BI (PDZ domain SCRIB-4) was 0.039 and the BI (PDZ domain SDCBP-2) was -0.067. It also gave a BI (PDZ domain SHANK1-1) of 0.547, a BI (PDZ domain SHANK3-1) of 0.554 and a BI (PDZ domain SHROOM2-1) of 0.058. For the same molecule, the BI (PDZ domain SHROOM3-1) was 0.042, the BI (PDZ domain SHROOM4-1) was -0.148 and the BI (PDZ domain SIPA1L2-1) was 0.064. For the same molecule, the BI (PDZ domain SIPA1L3-1) was -0.006, the BI (PDZ domain SNTA1-1) was 0.395 and the BI (PDZ domain SNTB1-1) was 0.503. For the same molecule, the BI (PDZ domain SNTG1-1) was 0.076, the BI (PDZ domain SNTG2-1) was 0.383 and the BI (PDZ domain STXB4-1) was -0.075. It also gave a BI (PDZ domain SYNJ2BP-1) of -0.026, a BI (PDZ domain SYNP2-1) of -0.044 and a BI (PDZ domain SYNPO2L-1) of -0.021. It also gave a BI (PDZ domain TIAM2-1) of 0.037, a BI (PDZ domain TJP1-2) of -0.006 and a BI (PDZ domain TJP1-3) of 0.099. It also gave a BI (PDZ domain TJP2-1) of 0.086, a BI (PDZ domain TJP2-2) of -0.005 and a BI (PDZ domain TJP2-3) of -0.025. It also gave a BI (PDZ domain TJP3-2) of 0.112, a BI (PDZ domain TJP3-3) of 0.12 and a BI (PDZ domain TX1B3-1) of -0.019. It also gave a BI (PDZ domain USH1C-1) of -0.098, a BI (PDZ domain USH1C-2) of -0.039 and a BI (PDZ domain USH1C-3) of -0.061. For the same molecule, the “number of PDZ domains identified as potential binders (BI>0.20)” value (holdup, singlicate, threshold BI>0.20) was 37 PDZ domains, the “maximal BI” value (holdup, singlicate, highest BI in the PDZome profile, BI standard error ~0.07) was 0.86 and the “binding of several PDZ domains (in words)” value (including several ones from MAGI and NHERF) was “detectably bound”. The “Max BI” value (maximum over PDZome) was 0.86 and the “number of partners detected for PTEN_KR and not for PTEN_Ac” value (over a total of 37) was 8.
